# Source: patent publication US9233095B2, “Small molecule RNase inhibitors and methods of use” (University of Rochester, priority 2011, dated 2016)
# Where two headings read alike, the source gives them in different places.
# Columns and labels:
# [1] = system: E. faecalis; experiment: CLSI broth microdilution MIC; assay type: cell-based, Enterococcus faecalis
# Text: (§1) In some examples, compounds can be further assayed using the Mueller Hinton (MH) broth antibacterial assay as specified by the Clinical and Laboratory Standards Institute MIC broth microdilution protocol (see Methods for Dilution Antimicrobial Susceptibility Tests for Bacteria That Grow Aerobically; Approved Standard, In The Clinical and Laboratory Standards Institute (CLSI, formerly NCCLS), 7th ed., January 2006, 26 (2), M7-A7; see also Performance Standards for Antimicrobial Susceptibility Testing; Eighteenth Informational Supplement, In The Clinical and Laboratory Standards Institute (CLSI, formerly NCCLS), January 2008, 28 (1), M100-S18).
# (§2) With the exception of RN4220-derivatives, in vitro activities of RNPA1000 against bacteria were determined by the broth microdilution method according to the Clinical and Laboratory Standards Institute (CLSI) guidelines using cation adjusted Mueller-Hinton broth or MH broth supplemented with 5% lysed horse blood (for testing Streptotococcus spp.). Microtiter plates containing serial dilutions of RNPA1000 (0, 4, 8, 16, 32, 64, and 128 μg/ml) were inoculated with 10^5 colony forming units (CFU)/ml and incubated for 18 hr at 37° C. […] The MIC value for each S. aureus strain was determined to be the median score of replicate measurements (n=5). Wells containing concentrations of RNPA1000≧MIC were plated for minimal bactericidal measurement. Where possible, experiments with VRSA strains were performed in a laminar flow hood to minimize potential for equipment contamination. For RN4220 cells containing plasmid vector (pCN51), RnpA overproducing plasmid (pRNPA-S) or RnpA underproducing plasmid (pRNPA-A.S.) in vitro antimicrobial activity of RNPA1000 was performed by the microdilution method as described above, except that cells were grown in Tryptic Soy Broth medium supplemented with 2.5 μM CdCl2 and 0, 1, 2, 4, 8, 16, 32, 64, or 128 μg/ml RNPA1000. Time-kill assays were also performed to monitor the antimicrobial properties of RNPA1000 for S. aureus strain UAMS-1 in the absence and presence of 0.25, 0.5, 2, and 4 times the strain's MIC for oxacillin (1 μg/ml), rifampicin (0.5 μg/ml), vancomycin (2 μg/ml), or daptomycin (1 μg/ml). The indicated amount of RNPA1000 and/or commercial antibiotic were added to mid-exponential phase (2×10^8 cfu/ml) S. aureus strain UAMS-1 cells and incubated at 37° C. Aliquots were removed at 0, 2, 4, 8, and 24 hr post-antimicrobial challenge, serial diluted, and plated to enumerate resulting cfu/ml. All time-kill assays were repeated at least 3 times.
# [2] = system: E. faecium (VRE); experiment: CLSI broth microdilution MIC; assay type: cell-based, Enterococcus faecium; conditions: for MIC: Enterococcus faecium
# Text: as §1, §2
# [3] = system: E. faecium; experiment: CLSI broth microdilution MIC; assay type: cell-based, Enterococcus faecium; conditions: for MIC: Enterococcus faecium
# Text: as §1, §2
# [4] = system: S. aureus RN4220; experiment: microdilution MIC of RnpA over- and under-producing cells; assay type: cell-based; conditions: Staphylococcus aureus, 2.5 μM CdCl2
# Procedure: as §2, with “The indicated amount of RNPA1000 and/or commercial antibiotic were added to mid-exponential phase (2×10^8 cfu/ml) S. aureus strain UAMS-1 cells and incubated at 37° C. Aliquots were removed at 0, 2, 4, 8, and 24 hr post-antimicrobial challenge, serial diluted, and plated to enumerate resulting cfu/ml. All time-kill assays were repeated at least 3 times.” left out
# To assess whether the susceptibility of S. aureus to RNPA1000 was attributable to the inhibition of cellular RnpA, the mRNA turnover properties of S. aureus that were challenged with a sub-inhibitory concentration of RnpA-inhibitor (0.5× MIC) were directly measured. […] To more directly determine whether RNPA1000's antimicrobial effects are mediated through cellular inhibition of RnpA, the RNPA1000 susceptibility of S. aureus RnpA over- and under-producing cells was assessed. […]
# [5] = system: S. aureus strain UAMS-1; experiment: time-kill assay; assay type: cell-based
# Procedure: as §2
# [6] = system: S. aureus cellular mRNA degradation; experiment: GeneChip mRNA turnover of RNPA1000 challenged cells; assay type: cell-based; conditions: 0.5× MIC, 30 min treatment, versus mock treated cells
# Procedure: For half life determinations, S. aureus strain UAMS-1, RN4220 (pCN51; plasmid containing CdCl2 inducible promoter), RN4220 (pRNPA; pCN51 capable of producing full length rnpA mRNA), or RN4220 (pRNPA-A.S.; pCN51 capable of producing rnpA antisense RNA) were grown to mid-exponential or stationary phase, transcription was arrested by the addition of rifampin (200 μg/ml), and aliquots were removed at 0-, 2.5-, 5-, 15- and 30-min post-transcriptional arrest for strain UAMS-1. To conserve reagents, aliquots were removed at 0 and 10 min post-transcriptional arrest for RN4220 derivatives. Plating ensured cultures had not developed rifampin resistance. Each strain and/or growth phase was assessed twice, except for RN4220 pRNPA-A.S. cells which were assessed four times. RNA was isolated from each aliquot, labeled, hybridized to an S. aureus GeneChip (Affymetrix; Santa Clara, Calif.), duplicates were averaged, and the mRNA half-lives of all mRNA species were determined, as previously described (see Anderson et al., J Bacteriol, 188: 6739-6756 (2006); Roberts et al., J Bacteriol, 188: 2593-2603 (2006)). […] Transcript synthesis was then arrested and the transcript titers of mRNA species were measured at 0- and 5-min post-transcriptional arrest (see Anderson et al., J Bacteriol, 188: 6739-6756 (2006); Roberts et al., J Bacteriol, 188: 2593-2603 (2006)). […]
# [7] = system: S. aureus strain Smith; experiment: acute lethal model of infection; assay type: in vivo, CD-1 mice; conditions: RNPA1000 128 mg/kg s.c., over the course of study
# [8] = combination time-kill, data not shown
compound,measurement,setting,value
Cc1cc(/C=C(/C#N)C(=O)Nc2cccc(Br)c2)c(C)n1-c1ccc(C(=O)O)cc1 [RNPA1000],antimicrobial activity in words,[1],mild activity
same,MIC,[1]; E. faecalis Isolate 1,64 µg/mL
same,MIC,[1]; E. faecalis Isolate 3,64 µg/mL
same,MIC,[1]; E. faecalis Isolate 4,64 µg/mL
same,MIC,[1]; E. faecalis Isolate 5,64 µg/mL
same,MIC,"[1]; Enterococcus faecalis, E. faecalis Isolate 2, read-out: MIC",64 µg/mL
same,antimicrobial activity in words,[2],mild activity
same,MIC,[2]; E. faecium (VRE) Isolate 1,64 µg/mL
same,MIC,[2]; E. faecium (VRE) Isolate 2,64 µg/mL
same,MIC,[2]; E. faecium (VRE) Isolate 3,32 µg/mL
same,MIC,[2]; E. faecium (VRE) Isolate 4,64 µg/mL
same,MIC,[2]; E. faecium (VRE) Isolate 5,32 µg/mL
same,antimicrobial activity in words,[3],mild activity
same,MIC,"[3]; E. faecium Isolate 1, read-out: MIC",64 µg/mL
same,MIC,"[3]; E. faecium Isolate 2, read-out: MIC",64 µg/mL
same,MIC,"[3]; E. faecium Isolate 3, read-out: MIC",64 µg/mL
same,MIC,"[3]; E. faecium Isolate 4, read-out: MIC",64 µg/mL
same,MIC,[3]; E. faecium Isolate 5 + reserpine (efflux pump inhibitor),32 µg/mL
same,MIC,"[3]; E. faecium Isolate 5, read-out: MIC",64 µg/mL
same,MIC,"[4]; RN4220, RN4220 RnpA overproducing cells",32 µg/mL
same,MIC,"[4]; RN4220, RN4220 RnpA underproducing cells (antisense)",8 µg/mL
same,MIC,"[4]; RN4220, RN4220 vector containing cells (pCN51)",32 µg/mL
same,mode of antimicrobial action in time kill assays,"[5]; 0.25-4 times the MIC, 0-24 hr",bacteriostatic
same,effect on the potency of oxacillin,"[5]; combination time-kill, 0.5 times the MIC of each",mildly increase the potency
same,effect on the antimicrobial activity of daptomycin,[5]; [8],does not affect the antimicrobial activities
same,effect on the antimicrobial activity of rifampicin,[5]; [8],does not affect the antimicrobial activities
same,effect on the antimicrobial activity of vancomycin,[5]; [8],does not affect the antimicrobial activities
same,mRNA degradation rate of S. aureus cells,[6],reduced the mRNA degradation rate
same,survival,[7],30%
